Results from EP3598902A1, “VITAMIN B2 AND ITS USE” (Société des Produits Nestlé S.A., priority 2014, dated 2016).

Test system: L6 differentiated muscle cells
Assay: glucose uptake (radiolabelled 2-deoxy-D-[1,2 3H] glucose) in differentiated muscle cells, absence of insulin
Type: cell-based
Settings: ingredient G 1 µM, ingredient K 10 nM, versus control or basal condition
Method: Ingredient G refers to vitamin B2, ingredient k refers to 1,25-dihydroxyvitamin D3, and ingredient J refers to zinc chloride.
Ingredient G was tested at 1 µM. Ingredient K was tested at 10 nM, and ingredient J was tested at 20 µM.
Each ingredient was tested in triplicate.

## Cc1cc2nc3c(=O)[nH]c(=O)nc-3n(C[C@H](O)[C@H](O)[C@H](O)CO)c2cc1C [ingredient G, vitamin B2]
Long term incubation (24 hrs)
  glucose uptake: increases in glucose uptake were observed
Short term incubation (2 hrs), ingredient J 20 µM
  glucose uptake: increases in glucose uptake were observed
